Experimental findings from patent publication US20230167073A1 (Teijin Pharma Limited, priority 2020, published 2023) are described below.

The assay concerns the target T1, Human TRPC6 (Homo sapiens, UniProt Q9Y210).
T1 construct: expressed in transfected cells
T1 sequence (Q9Y210 1-931): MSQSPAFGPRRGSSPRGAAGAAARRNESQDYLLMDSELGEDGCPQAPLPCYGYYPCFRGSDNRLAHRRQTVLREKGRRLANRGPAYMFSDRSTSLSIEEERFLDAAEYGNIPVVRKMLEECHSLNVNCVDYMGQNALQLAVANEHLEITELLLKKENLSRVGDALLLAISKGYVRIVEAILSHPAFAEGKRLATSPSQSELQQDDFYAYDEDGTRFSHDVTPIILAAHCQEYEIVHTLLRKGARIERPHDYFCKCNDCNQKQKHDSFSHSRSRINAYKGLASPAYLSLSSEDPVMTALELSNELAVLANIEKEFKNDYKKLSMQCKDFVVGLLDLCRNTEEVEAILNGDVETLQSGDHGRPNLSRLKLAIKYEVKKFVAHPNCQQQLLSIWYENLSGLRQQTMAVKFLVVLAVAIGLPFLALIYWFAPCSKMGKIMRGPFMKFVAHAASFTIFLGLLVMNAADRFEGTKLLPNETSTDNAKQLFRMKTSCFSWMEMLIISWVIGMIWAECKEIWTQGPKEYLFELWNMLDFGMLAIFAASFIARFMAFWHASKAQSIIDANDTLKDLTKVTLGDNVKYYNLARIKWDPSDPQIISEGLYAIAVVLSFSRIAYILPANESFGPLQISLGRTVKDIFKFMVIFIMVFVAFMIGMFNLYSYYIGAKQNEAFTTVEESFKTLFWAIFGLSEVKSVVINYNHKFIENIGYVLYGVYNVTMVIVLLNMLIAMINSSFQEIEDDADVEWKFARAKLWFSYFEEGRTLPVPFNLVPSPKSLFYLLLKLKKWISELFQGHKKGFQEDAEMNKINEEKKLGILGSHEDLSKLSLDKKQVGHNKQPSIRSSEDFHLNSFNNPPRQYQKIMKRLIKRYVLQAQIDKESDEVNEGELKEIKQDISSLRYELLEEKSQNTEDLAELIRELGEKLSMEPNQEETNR
In words: Evaluation of TRPC6 channel inhibitory activity (1), FLIPR Calcium 5 Assay Kit, OAG stimulation (Compound Nos. 1-1293). The class given is cell-based. The following applies: Human TRPC6 stably-expressing cells, OAG 30 μM, FLIPR Calcium 5 Assay Kit; read-out: Inhibitory activity (pIC50 class) (converted). Summed up:
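Cells stably expressing human TRPC6, plated 24 h before, were loaded 30 min with Calcium 5 dye plus probenecid in HEPES-HBSS. Compound was added 20 min before OAG (30 μM final) and fluorescence tracked on FLIPR. Inhibition normalised to no-compound and no-compound/no-OAG wells; pIC50 from four-parameter fit, reported as +/++/+++ categories.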
Take `N#Cc1ccc(-c2ccc(CCN)cc2)c(Oc2sc(N3CCCCC3)nc2C(F)(F)F)c1` [compound 785, 4-[4-(2-aminoethyl)phenyl]-3-[[2-piperidin-1-yl-4(trifluoromethyl)-1,3-thiazol-5-yl]oxy]benzonitrile]: the IC50 is 10 to 1000 nM.

For the compound `Cc1cc(Oc2cc(C#N)ccc2-c2ccc(C[C@H](N)C(=O)O)cc2)cc(N2CCOCC2)n1` [compound 435, (2S)-2-amino-3-[4-[4-cyano-2-(2-methyl-6-morpholin-4-ylpyridin-4-yl)oxyphenyl]phenyl]propanoic acid], the IC50 was greater than 1000 nM.

As to `Cc1nc(Oc2cc(C#N)ccc2-n2cc(C(O)CN)cn2)cc(-c2cccc(F)c2)n1` (stereo not drawn) [Compound 141, 4-[4-(2-amino-1-hydroxyethyl)pyrazol-1-yl]-3-[6-(3-fluorophenyl)-2-methylpyrimidin-4-yl]oxybenzonitrile], the IC50 was 10 to 1000 nM.

Take `Cc1nc(Oc2cc(C#N)ccc2-n2cc([C@H](O)CN)cn2)cc(-c2ccccc2F)n1` [compound 342, 4-[4-[(1S)-2-amino-1-hydroxyethyl]pyrazol-1-yl]-3-[6-(2-fluorophenyl)-2-methylpyrimidin-4-yl]oxybenzonitrile]: the IC50 is 10 to 1000 nM.

On to `Cc1nc(Oc2cc(C#N)ccc2-c2ncc(CN)cn2)cc(N2CCC2=O)n1` [compound 882, 4-[5-(aminomethyl)pyrimidin-2-yl]-3-[2-methyl-6-(2-oxoazetidin-1-yl)pyrimidin-4-yl]oxybenzonitrile], for which the IC50 is greater than 1000 nM.

With `Cn1nc(C2CCOCC2)cc1Oc1cc(C#N)ccc1-c1ncc(CCN)cn1` [Compound 273, 4-[5-(2-aminoethyl)pyrimidin-2-yl]-3-[2-methyl-5-(oxan-4-yl)pyrazol-3-yl]oxybenzonitrile], the IC50 is less than 10 nM.

On to `Cc1cc(Oc2cc(C#N)ccc2-c2ccc([C@H](O)CN)cn2)cc(C)n1` [compound 437, 4-[5-[(1S)-2-amino-1-hydroxyethyl]pyridin-2-yl]-3-(2,6-dimethylpyridin-4-yl)oxybenzonitrile], for which the IC50 was 10 to 1000 nM.

With `N#Cc1ccc(-c2ncc(CCN)cn2)c(Oc2cncc(N3CCOCC3)c2)c1` [compound 917, 4-[5-(2-aminoethyl)pyrimidin-2-yl]-3-(5-morpholin-4-ylpyridin-3-yl)oxybenzonitrile], the IC50 is 10 to 1000 nM.

For the compound `Cn1nc(N2CCOCC2)cc1Oc1cc(C#N)ccc1-c1ccc(CCN)cn1` [compound 485, 4-[5-(2-aminoethyl)pyridin-2-yl]-3-(2-methyl-5-morpholin-4-ylpyrazol-3-yl)oxybenzonitrile], the IC50 was less than 10 nM.

Consider `Cc1nn(C(C)C)cc1Oc1cc(F)ccc1-c1ncc(CCN)cn1` [compound 983, 2-[2-[4-fluoro-2-(3-methyl-1-propan-2-ylpyrazol-4-yl)oxyphenyl]pyrimidin-5-yl]ethanamine], for which the IC50 was less than 10 nM.

As for `Cn1nc(-c2ccccn2)cc1Oc1cc(C#N)ccc1-c1ncc(CNC2CC2)cn1` [compound 662, 4-[5-[(cyclopropylamino)methyl]pyrimidin-2-yl]-3-(2-methyl-5-pyridin-2-ylpyrazol-3-yl)oxybenzonitrile], the IC50 is 10 to 1000 nM.

For `N#Cc1ccc(-c2ncc(CCN)cn2)c(Cn2cc(-c3ccccc3)nn2)c1` [compound 1167, 4-[5-(2-aminoethyl)pyrimidin-2-yl]-3-[(4-phenyltriazol-1-yl)methyl]benzonitrile], the IC50 was less than 10 nM.

As to `Cn1nc(-c2ccccn2)cc1Oc1cc(C#N)ccc1-c1ccc(C(O)CN)cc1` (stereo not drawn) [Compound 161, 4-[4-(2-amino-1-hydroxyethyl)phenyl]-3-(2-methyl-5-pyridin-2-ylpyrazol-3-yl)oxybenzonitrile], the IC50 was less than 10 nM.

Turning to `Cn1nc(-c2ccccn2)cc1Oc1cc(C#N)ccc1-c1ncc(CNC23CC4CC(CC(C4)C2)C3)cn1` [compound 666, 4-[5-[(1-adamantylamino)methyl]pyrimidin-2-yl]-3-(2-methyl-5-pyridin-2-ylpyrazol-3-yl)oxybenzonitrile], the IC50 was greater than 1000 nM.

For the compound `N#Cc1ccc(-c2ncc(CCN)cn2)c(Cn2ncc(-c3ccccc3)n2)c1` [compound 1169, 4-[5-(2-aminoethyl)pyrimidin-2-yl]-3-[(4-phenyltriazol-2-yl)methyl]benzonitrile], the IC50 is greater than 1000 nM.

As for `N#Cc1ccc(-c2ncc(CCN)cn2)c(Cn2ccnc2-c2ccccc2)c1` [compound 1182, 4-[5-(2-aminoethyl)pyrimidin-2-yl]-3-[(2-phenylimidazol-1-yl)methyl]benzonitrile], the IC50 is greater than 1000 nM.

Take `Cc1cc(Oc2cc(C#N)ccc2-c2ncc(CN)cn2)cc(NC2CCOCC2)n1` [compound 648, 4-[5-(aminomethyl)pyrimidin-2-yl]-3-[2-methyl-6-(oxan-4-ylamino)pyridin-4-yl]oxybenzonitrile]: the IC50 is greater than 1000 nM.

As to `CC(C)(C)n1nc(C2CC2)cc1Oc1cc(C#N)ccc1-c1ccc(C(O)CN)cn1` (stereo not drawn) [compound 368, 4-[5-(2-amino-1-hydroxyethyl)pyridin-2-yl]-3-(2-tert-butyl-5-cyclopropylpyrazol-3-yl)oxybenzonitrile], the IC50 was 10 to 1000 nM.

As to `CCCc1cc(Oc2cc(C#N)ccc2-c2ccc(CN)cn2)n(C)n1` [compound 361, 4-[5-(aminomethyl)pyridin-2-yl]-3-(2-methyl-5-propylpyrazol-3-yl)oxybenzonitrile], the IC50 is less than 10 nM.

Take `Cn1nc(-c2ccccn2)cc1Oc1cc(C#N)ccc1-c1cc(CCN)ccn1` [compound 587, 4-[4-(2-aminoethyl)pyridin-2-yl]-3-(2-methyl-5-pyridin-2-ylpyrazol-3-yl)oxybenzonitrile]: the IC50 is less than 10 nM.

With `N#Cc1ccc(-c2ccc(CCN)cc2)c(Oc2cnnc(N3CCCC3)c2)c1` [Compound 65, 4-[4-(2-aminoethyl)phenyl]-3-(6-pyrrolidin-1-ylpyridazin-4-yl)oxybenzonitrile], the IC50 is less than 10 nM.

In the case of `N#Cc1ccc(-c2ccc(CCN)cn2)c(C(=O)c2cnc(N3CCOCC3)o2)c1` [compound 1083, 4-[5-(2-aminoethyl)pyridin-2-yl]-3-(2-morpholin-4-yl-1,3-oxazole-5-carbonyl)benzonitrile], the IC50 is 10 to 1000 nM.

In the case of `N#Cc1ccc(-c2ccc(CCN)cc2)c(Oc2cnnc(N3CCOCC3)c2)c1` [Compound 50, 4-[4-(2-aminoethyl)phenyl]-3-(6-morpholin-4-ylpyridazin-4-yl)oxybenzonitrile], the IC50 is less than 10 nM.

With `Cn1nc(C2CC2)cc1Oc1cc(C#N)ccc1-c1cc(C(=O)N2CCC[C@H](N)C2)ccn1` [compound 555, 4-[4-[(3S)-3-aminopiperidine-1-carbonyl]pyridin-2-yl]-3-(5-cyclopropyl-2-methylpyrazol-3-yl)oxybenzonitrile], the IC50 was greater than 1000 nM.

Turning to `Cc1cc(Oc2cc(C#N)ccc2-c2ncc([C@H](O)CN)cn2)cc(-c2nc(C)cs2)n1` [compound 600, 4-[5-[(1S)-2-amino-1-hydroxyethyl]pyrimidin-2-yl]-3-[2-methyl-6-(4-methyl-1,3-thiazol-2-yl)pyridin-4-yl]oxybenzonitrile], the IC50 was 10 to 1000 nM.

With `N#Cc1ccc(-c2ccc(C3(CN)CC3)cc2)c(Oc2cnnc(-c3ccccc3)c2)c1` [Compound 83, 4-[4-[1-(aminomethyl)cyclopropyl]phenyl]-3-(6-phenylpyridazin-4-yl)oxybenzonitrile], the IC50 is greater than 1000 nM.

As for `Cn1nc(-c2ccccc2)cc1Oc1cc(Cl)ncc1-c1ccc(CCN)cn1` [compound 1290, 2-[6-[6-chloro-4-(2-methyl-5-phenylpyrazol-3-yl)oxypyridin-3-yl]pyridin-3-yl]ethanamine], the IC50 was 10 to 1000 nM.

Regarding `N#Cc1ccc(-c2ncc(CCN)cn2)c(C(=O)c2cnc(C(F)(F)F)s2)c1` [compound 1039, 4-[5-(2-aminoethyl)pyrimidin-2-yl]-3-[2-(trifluoromethyl)-1,3-thiazole-5-carbonyl]benzonitrile], the IC50 is 10 to 1000 nM.

In the case of `N#Cc1ccc(-n2cc(CCN)cn2)c(Sc2cnnc(N3CCOCC3)c2)c1` [compound 1245, 4-[4-(2-aminoethyl)pyrazol-1-yl]-3-(6-morpholin-4-ylpyridazin-4-yl)sulfanylbenzonitrile], the IC50 was 10 to 1000 nM.

As to `Cc1noc(C)c1-c1cc(Oc2cc(C#N)ccc2-c2ccc(CCN)cc2)cnn1` [Compound 110, 4-[4-(2-aminoethyl)phenyl]-3-[6-(3,5-dimethyl-1,2-oxazol-4-yl)pyridazin-4-yl]oxybenzonitrile], the IC50 was greater than 1000 nM.
